These results are taken from US20260297060A1, “COMPOUNDS FOR THE DEGRADATION OF MUTANT BRAF” (C4 THERAPEUTICS, INC., priority 2023, published 2026).

One experiment addresses T1, BRAF V600E (Homo sapiens, UniProt P15056+Q96SW2, V600E).
T1 construct: knock-in of the HiBiT tag to the endogenous BRAF V600E locus; host or cells: A375.10 (A375 clonal line, CRISPR HiBiT knock-in at the endogenous BRAF V600E locus)
Kind of experiment: BRAF V600E HiBiT Degradation Assay. It counts as cell-based. Particulars: for Emax: read-out: HiBiT-Degradation A375.10 BRAF 2 hours Emax. The gist of the method:
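Endogenous HiBiT knock-in on BRAF V600E in A375 cells (clone A375.10); 11-point half-log series, top 10 μM, 2, 6 or 24 h at 37° C. Lytic HiBiT luminescence, background-subtracted, normalized to DMSO; 4-parameter fit gives DC50, Emax (residual protein) and IP (inflection point).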
A general note: With HiBiT, luminescence reflects the tagged protein that the partner subunit can reach.

Another experiment relates to A375-NRAS^Q61K cells. The experiment is described as follows: CTGlo Cell Viability Assay, A375-NRAS^Q61K (A375.11) cells, 96 hours. It counts as cell-based, human. The following applies: A375.11 (A375-NRAS^Q61K) cells; for CTGlo A375.11 96 hours Emax / Emax: lowest % viability achieved. The gist of the method: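 Viability as CellTiter-Glo ATP luminescence after 96 h compound exposure at 37 °C; A375.11 (BRAF V600E/NRAS Q61K) cells at 250/well, top final concentration 10 μM in half-log steps. Signal was background-corrected and set relative to DMSO controls. A 4-parameter logistic fit gave GI50 (50% crossing) and Emax.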

The mark [1] stands for this setting: A375.10 cells, BRAF V600E, 2 hours, residual protein remaining.
Where [2] appears, read: read-out: HiBiT-Degradation A375.10 BRAF 2 hours DC50, A375.10 cells, BRAF V600E, 2 hours.
[3] abbreviates: read-out: HiBiT-Degradation A375.10 BRAF 2 hours IP, A375.10 cells, BRAF V600E, 2 hours, inflection point.
The mark [4] stands for this setting: A375.10 cells, BRAF V600E, 2 hours, inflection point, read-out: HiBiT-Degradation A375.10 BRAF 2 hours IP.
Where [5] appears, read: A375.10 cells, BRAF V600E, 2 hours, read-out: HiBiT-Degradation A375.10 BRAF 2 hours DC50.

Read-outs that look alike come from different tables or passages of the source.

T1 sequence (P15056 whole entry V600E): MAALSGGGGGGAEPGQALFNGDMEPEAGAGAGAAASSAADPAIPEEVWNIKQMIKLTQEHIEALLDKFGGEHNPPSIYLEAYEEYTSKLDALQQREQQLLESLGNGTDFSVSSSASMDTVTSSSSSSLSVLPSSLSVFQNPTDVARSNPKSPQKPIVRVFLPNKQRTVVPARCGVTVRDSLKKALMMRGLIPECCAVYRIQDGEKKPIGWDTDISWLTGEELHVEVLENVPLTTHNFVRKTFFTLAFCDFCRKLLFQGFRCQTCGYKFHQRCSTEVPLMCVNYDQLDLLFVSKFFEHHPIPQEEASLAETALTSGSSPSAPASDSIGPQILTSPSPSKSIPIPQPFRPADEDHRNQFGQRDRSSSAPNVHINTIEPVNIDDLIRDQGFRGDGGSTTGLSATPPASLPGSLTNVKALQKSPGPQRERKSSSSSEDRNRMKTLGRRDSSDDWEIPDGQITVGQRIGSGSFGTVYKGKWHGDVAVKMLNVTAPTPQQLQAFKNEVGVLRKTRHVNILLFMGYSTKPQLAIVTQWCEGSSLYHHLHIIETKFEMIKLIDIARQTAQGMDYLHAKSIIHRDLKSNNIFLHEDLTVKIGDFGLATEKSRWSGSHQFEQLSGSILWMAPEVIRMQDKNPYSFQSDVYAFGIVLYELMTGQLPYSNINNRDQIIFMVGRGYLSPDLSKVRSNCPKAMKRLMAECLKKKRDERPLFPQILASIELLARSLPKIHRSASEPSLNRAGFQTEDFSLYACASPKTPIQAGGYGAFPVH
T1 sequence (Q96SW2 whole entry): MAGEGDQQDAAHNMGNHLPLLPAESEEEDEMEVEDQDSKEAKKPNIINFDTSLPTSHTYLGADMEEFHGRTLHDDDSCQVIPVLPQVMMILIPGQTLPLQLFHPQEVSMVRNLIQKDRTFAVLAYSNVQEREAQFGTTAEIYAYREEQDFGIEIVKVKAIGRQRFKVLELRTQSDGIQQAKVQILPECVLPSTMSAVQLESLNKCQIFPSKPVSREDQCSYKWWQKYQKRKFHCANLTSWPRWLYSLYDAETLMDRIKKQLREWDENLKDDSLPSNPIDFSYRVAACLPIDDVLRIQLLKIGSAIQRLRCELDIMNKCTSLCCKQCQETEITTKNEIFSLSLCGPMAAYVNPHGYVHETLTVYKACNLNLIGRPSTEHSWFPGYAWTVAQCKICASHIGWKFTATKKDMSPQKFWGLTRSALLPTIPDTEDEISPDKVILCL
T1 sequence (Q16531 whole entry partner): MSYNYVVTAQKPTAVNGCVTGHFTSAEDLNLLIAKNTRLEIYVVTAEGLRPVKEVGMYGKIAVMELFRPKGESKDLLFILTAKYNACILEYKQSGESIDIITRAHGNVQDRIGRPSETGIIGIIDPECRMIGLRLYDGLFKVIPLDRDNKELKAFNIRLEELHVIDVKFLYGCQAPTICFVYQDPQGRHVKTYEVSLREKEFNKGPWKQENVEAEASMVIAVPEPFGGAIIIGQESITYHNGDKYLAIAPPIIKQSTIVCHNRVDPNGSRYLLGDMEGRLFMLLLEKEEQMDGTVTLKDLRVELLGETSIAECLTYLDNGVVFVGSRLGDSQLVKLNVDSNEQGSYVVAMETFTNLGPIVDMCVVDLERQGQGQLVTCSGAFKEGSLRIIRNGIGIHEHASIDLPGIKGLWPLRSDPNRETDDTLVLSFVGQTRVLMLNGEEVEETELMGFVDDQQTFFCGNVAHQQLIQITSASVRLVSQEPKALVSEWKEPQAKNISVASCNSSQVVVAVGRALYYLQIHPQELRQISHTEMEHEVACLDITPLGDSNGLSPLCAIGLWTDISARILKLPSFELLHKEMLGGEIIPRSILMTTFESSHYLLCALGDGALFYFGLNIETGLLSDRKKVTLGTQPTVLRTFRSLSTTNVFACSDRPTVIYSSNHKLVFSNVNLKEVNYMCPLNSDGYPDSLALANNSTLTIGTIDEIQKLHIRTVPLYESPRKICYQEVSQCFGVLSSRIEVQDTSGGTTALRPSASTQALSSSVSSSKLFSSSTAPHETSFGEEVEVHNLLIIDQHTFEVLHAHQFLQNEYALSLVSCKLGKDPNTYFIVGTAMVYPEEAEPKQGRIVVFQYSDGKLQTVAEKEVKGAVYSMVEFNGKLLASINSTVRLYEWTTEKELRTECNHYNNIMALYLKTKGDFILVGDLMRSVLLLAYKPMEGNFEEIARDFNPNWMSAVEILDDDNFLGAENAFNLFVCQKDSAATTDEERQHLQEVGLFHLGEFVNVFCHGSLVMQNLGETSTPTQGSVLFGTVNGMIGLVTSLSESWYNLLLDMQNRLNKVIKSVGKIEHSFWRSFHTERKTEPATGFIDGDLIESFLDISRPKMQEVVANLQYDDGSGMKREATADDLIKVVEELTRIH

With `Cn1nc(N2CCC(=O)NC2=O)c2cc(F)c(C3CCC(N4CCC5(CC4)CC(c4cnc6ccc(Oc7c(F)ccc(NS(=O)(=O)C8CCCC8)c7C#N)cc6n4)C5)CC3)cc21` (single isomer, unassigned) [Compound 271, N-[2-cyano-3-[3-[7-[4-[3-(2,4-dioxohexahydropyrimidin-1-yl)-5-fluoro-1-methyl-indazol-6-yl]cyclohexyl]-7-azaspiro[3.5]nonan-2-yl]quinoxalin-6-yl]oxy-4-fluoro-phenyl]cyclopentanesulfonamide], the “HiBiT-Degradation A375.10 BRAF 2 hours Emax” value at BRAF V600E (setting [1]) is on record as “*** (<=50%)”. At BRAF V600E (setting [2]), the DC50 was < 1000 nM. For the same compound, the DC50 at BRAF V600E (setting [3]) was < 1000 nM. In the experiment on A375-NRAS^Q61K cells, the concentration for 50% growth inhibition (GI50) (as a rule, the concentration at which growth is held to half of that of the control) is < 1000 nM and the “CTGlo A375.11 96 hours Emax” value is listed as “*** (<=50%)”.

`CCN(C)S(=O)(=O)Nc1ccc(F)c(Oc2ccc3ncn(C4CC5(CCN(C6CCC7(CC6)CN(c6cc8c(cc6F)c(N6CCC(=O)NC6=O)nn8C)C7)CC5)C4)c(=O)c3c2)c1C#N` (stereo not drawn) [Compound 220, 6-[2-cyano-3-[[ethyl(methyl)sulfamoyl]amino]-6-fluoro-phenoxy]-3-[7-[2-[3-(2,4-dioxohexahydropyrimidin-1-yl)-5-fluoro-1-methyl-indazol-6-yl]-2-azaspiro[3.5]nonan-7-yl]-7-azaspiro[3.5]nonan-2-yl]-4-oxo-quinazoline]: the DC50 on BRAF V600E (setting [4]) is < 1000 nM; at BRAF V600E (setting [5]), > 10000 nM. The Emax was in the range of 50 to 90% at BRAF V600E (setting [1]) and 50 to 90% in the experiment on A375-NRAS^Q61K cells (Homo sapiens, 96 h). Besides, the GI50 in the experiment on A375-NRAS^Q61K cells (Homo sapiens, 96 h) is > 10000 nM.

`CN(CCO)S(=O)(=O)Nc1ccc(F)c(Oc2ccc3ncc([C@@H]4COC5(CCN(C6CCC(c7cc8c(cc7F)c(N7CCC(=O)NC7=O)nn8C)CC6)CC5)C4)nc3c2)c1C#N` (single isomer, unassigned) [Compound 174]: the DC50 on BRAF V600E (setting [4]) and on BRAF V600E (setting [5]) was < 1000 nM in each case. The Emax at BRAF V600E (setting [1]) was < 50%; in the experiment on A375-NRAS^Q61K cells (Homo sapiens, 96 h), 50 to 90%. The GI50 in the experiment on A375-NRAS^Q61K cells (Homo sapiens, 96 h) is < 1000 nM.

For the compound `Cn1nc(N2CCC(=O)NC2=O)c2cc(F)c(C3CCC(N4CCC5(CC4)CC(n4cnc6ccc(Oc7c(F)ccc(NS(=O)(=O)N8CC[C@@H](F)C8)c7C#N)cc6c4=O)C5)CC3)cc21` (single isomer, unassigned) [Compound 123], the DC50 on BRAF V600E (setting [4]) is < 1000 nM; on BRAF V600E (setting [5]), < 1000 nM; at BRAF V600E (A375.10 cells, BRAF V600E, 6 hours, inflection point, read-out: HiBiT-Degradation A375.10 BRAF 6 hours IP), < 1000 nM; on BRAF V600E (A375.10 cells, BRAF V600E, 6 hours, read-out: HiBiT-Degradation A375.10 BRAF 6 hours DC50), < 1000 nM; on BRAF V600E (A375.10 cells, HiBiT, BRAF V600E, 24 hours, read-out: HiBiT-Degradation A375.10 BRAF 24 hours DC50) it was < 1000 nM; on BRAF V600E (A375.10 cells, HiBiT, BRAF V600E, 24 hours, read-out: HiBiT-Degradation A375.10 BRAF 24 hours IP), < 1000 nM. In addition, on BRAF V600E (setting [1]), the “HiBiT-Degradation A375.10 BRAF 2 hours Emax” value is listed as “*** (<=50%)”. Further, the “HiBiT-Degradation A375.10 BRAF 6 hours Emax” value at BRAF V600E (A375.10 cells, BRAF V600E, 6 hours, residual protein remaining) is on record as “*** (<=50%)”. Further, on BRAF V600E (A375.10 cells, HiBiT, BRAF V600E, 24 hours), the “HiBiT-Degradation A375.10 BRAF 24 hours Emax” value was “*** (<=50%)”. Further, in the experiment with A375-NRAS^Q61K cells, the GI50 is < 1000 nM. Moreover, in the experiment on A375-NRAS^Q61K cells, the “CTGlo A375.11 96 hours Emax” value is recorded as “*** (<=50%)”.

As for `Cn1nc(N2CCC(=O)NC2=O)c2cc(F)c(N3CC4(CC(N5CCC6(CC5)C[C@@H](n5cnc7ccc(Oc8c(F)ccc(NS(=O)(=O)C9CCOCC9)c8C#N)cc7c5=O)CO6)C4)C3)cc21` [Compound 252, N-[2-cyano-3-[3-[(3R)-8-[2-[3-(2,4-dioxohexahydropyrimidin-1-yl)-5-fluoro-1-methyl-indazol-6-yl]-2-azaspiro[3.3]heptan-6-yl]-1-oxa-8-azaspiro[4.5]decan-3-yl]-4-oxo-quinazolin-6-yl]oxy-4-fluoro-phenyl]tetrahydropyran-4-sulfonamide], the DC50 is < 1000 nM at BRAF V600E (setting [4]) and > 10000 nM at BRAF V600E (setting [5]). For the same compound, the Emax at BRAF V600E (setting [1]) is 50 to 90%; in the experiment with A375-NRAS^Q61K cells (Homo sapiens, 96 h), 50 to 90%. Also, in the experiment on A375-NRAS^Q61K cells (Homo sapiens, 96 h), the GI50 was > 10000 nM.

In the case of `CCN(C)S(=O)(=O)Nc1ccc(F)c(Oc2ccc3ncc(C4CC5(CCN(C6CCC(c7cc8c(cc7F)c(N7CCC(=O)NC7=O)nn8C)CC6)CC5)C4)nc3c2)c1C#N` (single isomer, unassigned) [Compound 181, 7-[2-cyano-3-[[ethyl(methyl)sulfamoyl]amino]-6-fluoro-phenoxy]-2-[7-[4-[3-(2,4-dioxohexahydropyrimidin-1-yl)-5-fluoro-1-methyl-indazol-6-yl]cyclohexyl]-7-azaspiro[3.5]nonan-2-yl]quinoxaline], on BRAF V600E, the “HiBiT-Degradation A375.10 BRAF 2 hours Emax” value is recorded as “*** (<=50%)”. The DC50 on BRAF V600E (setting [4]) and on BRAF V600E (setting [5]) was < 1000 nM in each case. The GI50 in the experiment on A375-NRAS^Q61K cells is < 1000 nM. Also, the “CTGlo A375.11 96 hours Emax” value in the experiment on A375-NRAS^Q61K cells was “*** (<=50%)”.

In the case of `CCN(C)S(=O)(=O)Nc1ccc(F)c(Oc2ccc3ncnc(OC4CC5(C4)CN(C4CCC(c6cc7c(cc6F)c(N6CCC(=O)NC6=O)nn7C)CC4)C5)c3c2)c1C#N` (single isomer, unassigned) [Compound 233, 6-[2-cyano-3-[[ethyl(methyl)sulfamoyl]amino]-6-fluoro-phenoxy]-4-[[2-[4-[3-(2,4-dioxohexahydropyrimidin-1-yl)-5-fluoro-1-methyl-indazol-6-yl]cyclohexyl]-2-azaspiro[3.3]heptan-6-yl]oxy]quinazoline], the “HiBiT-Degradation A375.10 BRAF 2 hours Emax” value at BRAF V600E was “** (<90% and >50%)”. Moreover, the DC50 on BRAF V600E (setting [4]) and at BRAF V600E (setting [5]) was < 1000 nM throughout. The GI50 in the experiment with A375-NRAS^Q61K cells was > 10000 nM. Also, in the experiment on A375-NRAS^Q61K cells, the “CTGlo A375.11 96 hours Emax” value is “** (<90% and >50%)”.

With `CCN(C)S(=O)(=O)Nc1ccc(F)c(Oc2ccc3ncc(OC4CC5(C4)CN(C4CCC(c6cc7c(cc6F)c(N6CCC(=O)NC6=O)nn7C)CC4)C5)nc3c2)c1C#N` (single isomer, unassigned) [Compound 281, 7-[2-cyano-3-[[ethyl(methyl)sulfamoyl]amino]-6-fluoro-phenoxy]-2-[[2-[4-[3-(2,4-dioxohexahydropyrimidin-1-yl)-5-fluoro-1-methyl-indazol-6-yl]cyclohexyl]-2-azaspiro[3.3]heptan-6-yl]oxy]quinoxaline], the DC50 on BRAF V600E (setting [4]) was < 1000 nM; on BRAF V600E (setting [5]) it was > 10000 nM. Also, the Emax is 50 to 90% on BRAF V600E (setting [1]) and < 50% with A375-NRAS^Q61K cells (Homo sapiens, 96 h). The GI50 in the experiment with A375-NRAS^Q61K cells (Homo sapiens, 96 h) is < 1000 nM.

In the case of `CCN(C)S(=O)(=O)Nc1ccc(F)c(Oc2ccc3ncn(C4CC5(CCN(C6CCC(c7ccc(NC8CCC(=O)NC8=O)cc7F)CC6)CC5)C4)c(=O)c3c2)c1F` (single isomer, unassigned) [Compound 166, 3-[7-[4-[4-[(2,6-dioxo-3-piperidyl)amino]-2-fluoro-phenyl]cyclohexyl]-7-azaspiro[3.5]nonan-2-yl]-6-[3-[[ethyl(methyl)sulfamoyl]amino]-2,6-difluoro-phenoxy]-4-oxo-quinazoline], the DC50 at BRAF V600E (setting [4]) was < 1000 nM; at BRAF V600E (setting [5]), > 10000 nM. Also, the Emax on BRAF V600E (setting [1]) was 50 to 90%. For the same compound, the “CTGlo A375.11 96 hours Emax” value in the experiment on A375-NRAS^Q61K cells was “* (>=90%)”. Also, the GI50 with A375-NRAS^Q61K cells (Homo sapiens, 96 h) fell in the range of 1000 to 10000 nM.

On to `CCN(C)S(=O)(=O)Nc1ccc(F)c(Oc2ccc3ncn(C4CC5(CCN([C@H]6C[C@@H](c7cc8c(cc7F)c(N7CCC(=O)NC7=O)nn8C)C6)CC5)C4)c(=O)c3c2)c1C#N` [Compound 209, 6-[2-cyano-3-[[ethyl(methyl)sulfamoyl]amino]-6-fluoro-phenoxy]-3-[7-[3-[3-(2,4-dioxohexahydropyrimidin-1-yl)-5-fluoro-1-methyl-indazol-6-yl]cyclobutyl]-7-azaspiro[3.5]nonan-2-yl]-4-oxo-quinazoline], for which the DC50 at BRAF V600E (setting [4]) and at BRAF V600E (setting [5]) was < 1000 nM each time. Further, the Emax on BRAF V600E (setting [1]) was 50 to 90%; in the experiment on A375-NRAS^Q61K cells (Homo sapiens, 96 h) it was < 50%. In the experiment on A375-NRAS^Q61K cells (Homo sapiens, 96 h), this compound yielded a GI50 of 1000 to 10000 nM.

`CCN(C)S(=O)(=O)Nc1ccc(F)c(Oc2ccc3ncn([C@H]4COC5(CCC(N6CCC(c7ccc(NC8CCC(=O)NC8=O)cc7F)C(F)(F)C6)CC5)C4)c(=O)c3c2)c1C#N` (single isomer, unassigned) [Compound 190]: the DC50 on BRAF V600E (setting [4]) and on BRAF V600E (setting [5]) was < 1000 nM throughout. The Emax at BRAF V600E (setting [1]) is < 50%; with A375-NRAS^Q61K cells (Homo sapiens, 96 h) it was < 50%. Moreover, the GI50 with A375-NRAS^Q61K cells (Homo sapiens, 96 h) was in the range of 1000 to 10000 nM.

For `Cn1nc(N2CCC(=O)NC2=O)c2cc(F)c(C3CCC(N4CCC5(CC4)CC(c4cnc6ccc(Oc7c(F)ccc(NS(=O)(=O)C8CCCC8)c7C#N)cc6n4)C5)CC3)cc21` (single isomer, unassigned) [Compound 270, N-[2-cyano-3-[3-[7-[4-[3-(2,4-dioxohexahydropyrimidin-1-yl)-5-fluoro-1-methyl-indazol-6-yl]cyclohexyl]-7-azaspiro[3.5]nonan-2-yl]quinoxalin-6-yl]oxy-4-fluoro-phenyl]cyclopentanesulfonamide], the Emax is < 50% at BRAF V600E (setting [1]) and 50 to 90% in the experiment on A375-NRAS^Q61K cells (Homo sapiens, 96 h). The DC50 at BRAF V600E (setting [2]) and at BRAF V600E (setting [3]) was < 1000 nM throughout. The GI50 in the experiment with A375-NRAS^Q61K cells (Homo sapiens, 96 h) is < 1000 nM.
